Series [1] is described as follows: Cytotoxicity: cell counts of mock-infected H9 cells. It counts as cell-based. The following applies: human. The method, then: (§1) The biological evaluation of HIV-1 inhibition was carried out according to established protocols, (Kashiwada, Y., et al., J Med Chem. 39:1016-1017 (1996); Hashimoto, F., et al., Bioorg. & Med Chem. 5:2133-2143 (1997)). The T cell line, H9, was maintained in continuous culture with complete medium (RPMI 1640 with 10% fetal calf serum supplemented with L-glutamine at 5% CO2 and 37° C.). Aliquot of this cell line were only used in experiments when in log-phase growth. Test samples were first dissolved in dimethyl sulfoxide. The following final drug concentrations were routinely used for screening: 100, 20, 4 and 0.8 μg/ml. For active agents, additional dilutions were prepared for subsequent testing so that an accurate EC50 value (defined below) could be achieved. As the test samples were being prepared, an aliquot of the H9 cell line was infected with HIV-1 (IIIB isolate) while another aliquot was mock-infected with complete medium. […] The appropriate amount of virus for a multiplicity of infection (moi) between 0.1 and 0.01 Infectious Units/cell was added to the first aliquot of H9 cells. The other aliquot only received culture medium, and these mock-infected cells were used for toxicity determinations (IC50, defined below). After a 4 h incubation at 37° C. and 5% CO2, both cell populations were washed three times with fresh medium and then added to the appropriate wells of a 24 well-plate containing the various concentrations of the test drug or culture medium (positive infected control/negative drug control). In addition, AZT was also assayed during each experiment as a positive drug control. The plates were incubated at 37° C. and 5% CO2 for 4 days. Cell-free supernatants were collected on Day 4 for use in a p24 antigen ELISA assay. P24 antigen is a core protein of HIV and therefore is an indirect measure of virus present in the supernatants. Toxicity was determined by performing cell counts by a Coulter Counter on the mock-infected H9 cells which had either received culture medium (no toxicity), test sample, or AZT.
Compounds of the present invention were assayed for anti-HIV activity according to the following assay procedures. The T cell line, H9, and the promonocytic cell line, U937, were maintained separately in continuous culture with complete medium (RPMI 1640 with 10% fetal calf serum) at 5% CO2 and 37° C. The cell lines were used in experiments only when in the logarithmic phase of growth, whereas uninfected peripheral blood mononuclear cells (PBMCs) were first stimulated with PHA (1 μg/mL) for three days. All cell targets were incubated with HIV-1 (IIIB isolate, TCID50 10^4 IU/ml, at a multiplicity of infection of […] IU/cell) for one hour at 37° C. and 5% CO2. The cell lines and PBMCs were washed thoroughly to remove unadsorbed virions and resuspended at 4×10^5 cells/ml in complete medium or complete medium with 10% v/v interleukin 2 (IL-2) , respectively. One ml. aliquots were placed into wells of 24-well culture plates containing an equal volume of test compounds (diluted in the appropriate culture medium). The toxicity of each compound was assessed by determining the number of compound-exposed uninfected cells that remained after four days at 37° C. and 5% CO2. A p24 antigen ELISA assay was used to determine the level of virus released in the medium of the HIV-infected cultures. The p24 antigen assay used a HIV-1 anti-p24 specific monoclonal antibody as the capture antibody coated onto 96-well plates. Following a sample incubation period, rabbit serum containing antibodies for HIV-1 p24 was used to tag any p24 captured onto the microtiterwell surface. Peroxidase conjugated goat anti-rabbit serum was then used to tag HIV-1 p24 specific rabbit antibodies that had complexed with captured p24. […] The cutoff for the p24 ELISA assay was 12.5 pg/ml. P24 in the culture medium was quantitated against a standard curve containing known amounts of p24. […]

Series [2] concerns HIV-1 (IIIB isolate). Description: HIV-1 inhibition (p24 antigen ELISA) in infected H9 lymphocytes. The series is classed as cell-based. The following applies: for EC50: Human immunodeficiency virus 1, IIIB, Lymphocyte, 96 h, read-out: Anti-HIV Activity EC50; for Therapeutic Index (TI = IC50/EC50): H9 cells, average of at least two experiments; for anti-HIV activity, result in words / TI, result in words: H-9 lymphocytes; for anti-HIV activity, result in words: EC50 compared with related compounds; for TI, result in words: compared with related compounds. As for the experimental part:
as §1, with “Aliquot” for “The biological evaluation of HIV-1 inhibition was carried out according to established protocols, (Kashiwada, Y., et al., J Med Chem. 39:1016-1017 (1996); Hashimoto, F., et al., Bioorg. & Med Chem. 5:2133-2143 (1997)). The T cell line, H9, was maintained in continuous culture with complete medium (RPMI 1640 with 10% fetal calf serum supplemented with L-glutamine at 5% CO2 and 37° C.). Aliquot”, “achieved.” for “achieved. As the test samples were being prepared, an aliquot of the H9 cell line was infected with HIV-1 (IIIB isolate) while another aliquot was mock-infected with complete medium.”
Compounds of the present invention were assayed for anti-HIV activity according to the following assay procedures. […] The cell lines were used in experiments only when in the logarithmic phase of growth, whereas uninfected peripheral blood mononuclear cells (PBMCs) were first stimulated with PHA (1 μg/mL) for three days. […] The cell lines and PBMCs were washed thoroughly to remove unadsorbed virions and resuspended at 4×10^5 cells/ml in complete medium or complete medium with 10% v/v interleukin 2 (IL-2) , respectively. One ml. aliquots were placed into wells of 24-well culture plates containing an equal volume of test compounds (diluted in the appropriate culture medium). The toxicity of each compound was assessed by determining the number of compound-exposed uninfected cells that remained after four days at 37° C. and 5% CO2. A p24 antigen ELISA assay was used to determine the level of virus released in the medium of the HIV-infected cultures. The p24 antigen assay used a HIV-1 anti-p24 specific monoclonal antibody as the capture antibody coated onto 96-well plates. […] P24 in the culture medium was quantitated against a standard curve containing known amounts of p24. The effective (EC50) and inhibitory (IC50) concentrations for anti-HIV activity and cytotoxicity, respectively, were determined.

[3] abbreviates: toxic to 50% of mock-infected H9 cells, 4 days, average of at least two experiments, read-out: Cytotoxicity IC50.

Entries after “also recorded” stand apart in the source; their conditions may differ. Like-named read-outs stand apart in the source and are kept apart here.

Consider `Cc1cn([C@H]2C[C@H](N=[N+]=[N-])[C@@H](CO)O2)c(=O)[nH]c1=O` [AZT, reference compound], for which, in series [1] (setting [3]), the CC50 at 96 h turned out to be 500 µM.
In the case of `C=C(C)[C@@H]1CC[C@]2(C(=O)O)CC[C@]3(C)[C@H](CC[C@@H]4[C@@]5(C)CC[C@H](OC(=O)CC(C)(C)CC(=O)O)C(C)(C)[C@@H]5CC[C@]43C)[C@@H]12` [Compound 2, reference compound], in series [2], the 50% effective concentration (EC50) was found to be 0.0023 µM. In series [1] (h9 cells), the CC50 at 96 h was 4.5 µM.
On to `C=C(C)[C@@H]1CC[C@]2(CO)CC[C@]3(C)[C@H](CC[C@@H]4[C@@]5(C)CC[C@H](O)C(C)(C)[C@@H]5CC[C@]43C)[C@@H]12` [Compound 3, betulin], for which, in series [2], the “Therapeutic Index (TI = IC50/EC50)” value stood at 1.9; the “anti-HIV activity, result in words” value is “less potent than betulinic acid (1)”; the EC50 amounted to 23 µM. Also, in series [1] (setting [3]), the CC50 at 96 h was determined as 43.7 µM.
Regarding `C=C(C)[C@@H]1CC[C@]2(COC(=O)CC(C)(C)CC(=O)O)CC[C@]3(C)[C@H](CC[C@@H]4[C@@]5(C)CC[C@H](OC(=O)CC(C)(C)CC(=O)O)C(C)(C)[C@@H]5CC[C@]43C)[C@@H]12` [Compound 4, 3,28-Di-O-(3',3'-dimethylglutaryl)-betulin], in series [2], the “Therapeutic Index (TI = IC50/EC50)” value was 21,515; the “anti-HIV activity, result in words” value is “significantly enhanced activity; also recorded: remarkable anti-HIV activity even greater than that of the betulinic acid derivative 2”; the “TI, result in words” value is reported as “remarkably high therapeutic index (TI); also recorded: higher TI than compound 2”; the EC50 is 0.00066 µM. Also, in series [2] (compared with compound 2), the “fold more potent than compound 2” value was “about 3 fold”. The CC50 at 96 h in series [1] (h9 cells) was 14.2 µM.
Turning to `C=C(C)[C@@H]1CC[C@]2(COC(=O)CC(C)(CC)CC(=O)O)CC[C@]3(C)[C@H](CC[C@@H]4[C@@]5(C)CC[C@H](OC(=O)CC(C)(CC)CC(=O)O)C(C)(C)[C@@H]5CC[C@]43C)[C@@H]12` (stereo partly shown) [Compound 5, 3,28-Di-O-(3',3'-methylethylglutaryl)-betulin], in series [2], the “Therapeutic Index (TI = IC50/EC50)” value is 3,476; the “anti-HIV activity, result in words” value is listed as “in the nanomolar range; also recorded: less active compared with compound 4”; the EC50 was determined as 0.0053 µM. In series [1] (h9 cells), this compound returned a CC50 at 96 h of 18.4 µM.
Consider `C=C(C)[C@@H]1CC[C@]2(COC(=O)CC3(CC(=O)O)CCCC3)CC[C@]3(C)[C@H](CC[C@@H]4[C@@]5(C)CC[C@H](OC(=O)CC6(CC(=O)O)CCCC6)C(C)(C)[C@@H]5CC[C@]43C)[C@@H]12` [Compound 6, 3,28-Di-O-(3',3'-tetramethyleneglutaryl)-betulin], for which, in series [2], the “Therapeutic Index (TI = IC50/EC50)” value was 267; the “anti-HIV activity, result in words” value is reported as “in the nanomolar range; also recorded: less active compared with compound 4; also recorded: least activity”; the “TI, result in words” value was “lowest TI values”; the EC50 was 0.077 µM. In series [1] (h9 cells), this compound had a CC50 at 96 h of 20.5 µM.
On to `CC(C)[C@@H]1CC[C@]2(COC(=O)CC(C)(C)CC(=O)O)CC[C@]3(C)[C@H](CC[C@@H]4[C@@]5(C)CC[C@H](OC(=O)CC(C)(C)CC(=O)O)C(C)(C)[C@@H]5CC[C@]43C)[C@@H]12` [Compound 8, 3,28-Di-O-(3',3'-dimethyglutaryl)-dihydrobetulin], for which, in series [2], the “Therapeutic Index (TI = IC50/EC50)” value was 2,253 and the EC50 came out at 0.0047 µM. Further, in series [2] (compared with compound 4), the “fold drop in TI on saturation of C20-C29 double bond” value was around 9 fold and the “fold drop in activity on saturation of C20-C29 double bond” value is reported as around 7 fold. Further, in series [1] (h9 cells), the CC50 at 96 h amounted to 10.6 µM.
For `CCC(C)(CC(=O)O)CC(=O)OC[C@]12CC[C@@H](C(C)C)[C@@H]1[C@H]1CC[C@@H]3[C@@]4(C)CC[C@H](OC(=O)CC(C)(CC)CC(=O)O)C(C)(C)[C@@H]4CC[C@@]3(C)[C@]1(C)CC2` (stereo partly shown) [Compound 9, 3,28-Di-O-(3',3'-methylethylglutaryl)-dihydrobetulin], in series [2], the “Therapeutic Index (TI = IC50/EC50)” value is 248; the “anti-HIV activity, result in words” value is “less inhibition than the unsaturated 5 and 6”; the EC50 stood at 0.075 µM. In series [1] (h9 cells), this compound showed a CC50 at 96 h of 18.7 µM.

Values taken from US6172110A, “Acylated betulin and dihydrobetulin derivatives, preparation thereof and use thereof” (The University of North Carolina at Chapel Hill, priority 1999, dated 2001).
